From US20230158025A1 (UNIVERSITY OF UTAH RESEARCH FOUNDATION, priority 2020, published 2023)
pIC50: −log10 of the molar value. Where two headings read alike, the source gives them in different places.

Key:
recombinant human GALK1 = recombinant human GALK1 (Homo sapiens, UniProt P51570); experiment: hGALK1 biochemical activity assay (Kinase-Glo Plus, ATP depletion)
How it was run: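 Recombinant human or mouse GALK1 (5 nM, with 100 μM galactose, in the added enzyme solution) was run with ATP (35 μM in the substrate solution) in HEPES pH 8.0 buffer. Compounds were tested at 11 1/3-step concentrations from 57.4 μM to 0.97 nM. After 1 h at room temperature, remaining ATP was read by Kinase-Glo Plus luminescence.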

recombinant mouse GALK1 = recombinant mouse GALK1 (Mus musculus, UniProt Q9R0N0); experiment: mGALK1 biochemical activity assay (Kinase-Glo Plus, ATP depletion)
recombinant mouse GALK1, sequence (Q9R0N0 whole entry): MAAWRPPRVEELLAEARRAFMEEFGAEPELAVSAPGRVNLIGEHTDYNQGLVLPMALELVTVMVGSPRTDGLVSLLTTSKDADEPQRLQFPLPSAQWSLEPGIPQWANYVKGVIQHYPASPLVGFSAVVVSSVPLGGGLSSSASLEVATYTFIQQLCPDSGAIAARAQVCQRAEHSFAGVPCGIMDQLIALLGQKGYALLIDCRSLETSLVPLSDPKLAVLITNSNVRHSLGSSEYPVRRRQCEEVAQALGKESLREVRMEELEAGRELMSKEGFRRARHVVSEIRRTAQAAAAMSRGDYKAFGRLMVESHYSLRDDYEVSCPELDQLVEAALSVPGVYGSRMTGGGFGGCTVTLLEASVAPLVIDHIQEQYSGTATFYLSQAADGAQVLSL
How it was run: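 Recombinant GALK1 (5 nM) with 100 μM galactose; GALK1 turnover read as ATP depletion by Kinase-Glo Plus luminescence. Reaction ran 1 h at room temperature before detection reagent was added.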

[1] = aqueous kinetic solubility
[2] = rat microsomal stability (RLM)
[3] = recombinant human GALK1, Kinase-Glo Plus ATP depletion, bracketed figure in the cell, e.g. (−1.2), is not defined in the text shown, read-out: hGALK
[4] = recombinant mouse GALK1, Kinase-Glo Plus ATP depletion, bracketed figure in the cell, e.g. (−1.2), is not defined in the text shown, read-out: mGALK
[5] = microsomal stability half-life, minutes
[6] = Tables 2-15, 35 μM ATP, 100 μM galactose, 1 h, bracketed figure after some values (e.g. −1.2) is undefined and not reported, read-out: hGALK IC50
[7] = recombinant human GALK1, Kinase-Glo Plus ATP depletion, read-out: hGALK
[8] = Tables 2-15, 35 μM ATP, 100 μM galactose, 1 h, bracketed figure after some values is undefined and not reported, read-out: mGALK IC50
[9] = recombinant mouse GALK1, Kinase-Glo Plus ATP depletion, read-out: mGALK

recombinant human GALK1, sequence (P51570 whole entry): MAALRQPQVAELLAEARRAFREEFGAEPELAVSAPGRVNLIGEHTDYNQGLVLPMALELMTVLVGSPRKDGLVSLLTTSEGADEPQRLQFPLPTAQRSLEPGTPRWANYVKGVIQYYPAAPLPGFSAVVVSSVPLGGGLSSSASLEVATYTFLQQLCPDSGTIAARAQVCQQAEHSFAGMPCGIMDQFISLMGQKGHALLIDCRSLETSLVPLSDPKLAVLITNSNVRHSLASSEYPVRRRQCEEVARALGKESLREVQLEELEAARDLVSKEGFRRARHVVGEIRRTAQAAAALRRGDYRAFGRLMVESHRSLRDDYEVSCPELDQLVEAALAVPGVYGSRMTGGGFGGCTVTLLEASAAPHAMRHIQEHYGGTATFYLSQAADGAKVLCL

SMILES	pIC50 (recombinant human GALK1; [3])	pIC50 (recombinant mouse GALK1; [4])	Perm. (1 × 10^−6 cm/sec) (PAMPA permeability; PAMPA)	Sol. ([1]; aqueous kinetic solubility) [µg/mL]	Metab. Stabil. (m) [2, 5] [m]	pIC50 (recombinant human GALK1; [6])	pIC50 (recombinant human GALK1; [7])	pIC50 (recombinant mouse GALK1; [8])	pIC50 (recombinant mouse GALK1; [9])	Perm. (1 × 10^−6 cm/sec) (PAMPA permeability)	Sol. [1] [µg/mL]	Metab. Stabil. (m) ([2]; microsomal half-life)	Papp (PAMPA permeability; PAMPA, Perm. (1 × 10^−6 cm/sec)) [nm/s]	Metab. Stabil. (m) ([2]; microsomal stability half-life)	hGALK IC50 (recombinant human GALK1; Tables 2-15, 35 μM ATP, 100 μM galactose, 1 h, bracketed figure after some values (e.g. −1.2) is undefined and not reported)	hGALK (μM) (recombinant human GALK1; recombinant human GALK1, Kinase-Glo Plus ATP depletion)
O=C(Nc1nncs1)C1=C(c2cnccn2)NC(Nc2nc3ccccc3o2)=NC1c1ccccc1Cl (centres unmarked) [Compound 249, 2-(benzo[d]oxazol-2-ylamino)-4-(2-chlorophenyl)-6-(pyrazin-2-yl)-N-(1,3,4-thiadiazol-2-yl)-1,4-dihydropyrimidine-5-carboxamide]	5.41	4.66	60.3 1 × 10^−6 cm/sec	2.1	>30											
COc1ccc([C@H]2N=C(Nc3nc4cccc(N)c4o3)NC(C)=C2C(=O)Nc2cc(C(=O)O)ccn2)c(Cl)c1 [Compound 86, (S)-2-(2-((7-aminobenzo[d]oxazol-2-yl)amino)-4-(2-chloro-4-methoxyphenyl)-6-methyl-1,4-dihydropyrimidine-5-carboxamido)isonicotinic acid]						5.26	5.26	4.46	4.46	<1 1 × 10^−6 cm/sec	>81	>30				
COc1ccc2nc(NC3=NC(c4ccccc4Cl)C(C(=O)Nc4nnc(-c5cccnc5)s4)=C(C)N3)oc2c1 (centres unmarked) [Compound 93, 4-(2-chlorophenyl)-2-((6-methoxybenzo[d]oxazol-2-yl)amino)-6-methyl-N-(5-(pyridin-3-yl)-1,3,4-thiadiazol-2-yl)-1,4-dihydropyrimidine-5-carboxamide]							5.01		4.66	<4.4 1 × 10^−6 cm/sec	<1	>30				
CC1=C(C(=O)Nc2nnc(-c3cccnc3)s2)C(c2ccccc2Cl)N=C(Nc2nc3ccc(F)cc3o2)N1 (centres unmarked) [Compound 100, 4-(2-chlorophenyl)-2-((6-fluorobenzo[d]oxazol-2-yl)amino)-6-methyl-N-(5-(pyridin-3-yl)-1,3,4-thiadiazol-2-yl)-1,4-dihydropyrimidine-5-carboxamide]							4.76		4.41	<9.9 1 × 10^−6 cm/sec	<1	>30				
COc1ccc(C2N=C(Nc3nc4cccc(N)c4o3)NC(C)=C2C(=O)Nc2cc(C(=O)O)ccn2)c(Cl)c1 (racemic) [Compound 80, 2-(2-((7-aminobenzo[d]oxazol-2-yl)amino)-4-(2-chloro-4-methoxyphenyl)-6-methyl-1,4-dihydropyrimidine-5-carboxamido)isonicotinic acid]						6.85	6.85	5.71	5.71		>81	>30	< 10			
CC1=C(C(=O)NCc2c(C)nn(C)c2C)C(c2ccc(C)cc2Cl)N=C(Nc2nc3ccc(F)cc3o2)N1 (centres unmarked) [Compound 111, 4-(2-chloro-4-methylphenyl)-2-((6-fluorobenzo[d]oxazol-2-yl)amino)-6-methyl-N-((1,3,5-trimethyl-1H-pyrazol-4-yl)methyl)-1,4-dihydropyrimidine-5-carboxamide]						5.41	5.41	5.31	5.31	16.91 1 × 10^−6 cm/sec	<1	2.66				
CC1=C(C(=O)Nc2nncs2)C(c2ccccc2Br)N=C(Nc2nc3ccccc3o2)N1 (centres unmarked) [Compound 251, 2-(benzo[d]oxazol-2-ylamino)-4-(2-bromophenyl)-6-methyl-N-(1,3,4-thiadiazol-2-yl)-1,4-dihydropyrimidine-5-carboxamide]	5.36	5.01	446.9 1 × 10^−6 cm/sec	<1	>30											
COC(=O)c1cc(NC(=O)C2=C(C)NC(Nc3nc4ccccc4o3)=NC2c2ccccc2Cl)ccn1 (centres unmarked) [Compound 204, methyl 4-(2-(benzo[d]oxazol-2-ylamino)-4-(2-chlorophenyl)-6-methyl-1,4-dihydropyrimidine-5-carboxamido)picolinate]			49.2 1 × 10^−6 cm/sec	<1		5.11	5.11	4.96	4.96					>30		
CC1=C(C(=O)Nc2cc(C(=O)O)ccn2)C(c2cccc(N)c2Cl)N=C(Nc2nc3ccc(F)cc3o2)N1 (centres unmarked) [Compound 64, 2-(4-(3-amino-2-chlorophenyl)-2-((6-fluorobenzo[d]oxazol-2-yl)amino)-6-methyl-1,4-dihydropyrimidine-5-carboxamido)isonicotinic acid]						5.51	5.51	4.76	4.76	<1 1 × 10^−6 cm/sec	>79	>30				
CC1=C(C(=O)Nc2cc(C(=O)O)ccn2)C(c2ccc(Br)cc2Cl)N=C(Nc2nc3ccc(F)cc3o2)N1 (centres unmarked) [Compound 62, 2-(4-(4-bromo-2-chlorophenyl)-2-((6-fluorobenzo[d]oxazol-2-yl)amino)-6-methyl-1,4-dihydropyrimidine-5-carboxamido)isonicotinic acid]						5.96	5.96	5.41	5.41	<1.7 1 × 10^−6 cm/sec	2.4	>30				
CC1=C(C(=O)Nc2nncs2)C2(CCCC2)N=C(Nc2nc3ccccc3o2)N1 [Compound 252, 7-(benzo[d]oxazol-2-ylamino)-9-methyl-N-(1,3,4-thiadiazol-2-yl)-6,8-diazaspiro[4.5]deca-6,9-diene-10-carboxamide]	5.41	4.71	<1 1 × 10^−6 cm/sec	<1	>30											
CC1=C(C(=O)Nc2ccc(Cl)cc2)C(c2ccccc2Cl)N=C(Nc2nc3ccccc3o2)N1 (centres unmarked) [Compound 141, 2-(benzo[d]oxazol-2-ylamino)-4-(2-chlorophenyl)-N-(4-chlorophenyl)-6-methyl-1,4-dihydropyrimidine-5-carboxamide]			2.0 1 × 10^−6 cm/sec	<1				5.11	5.11					>30	inactive	in- active
CC1=C(C(=O)Nc2cccc(CO)c2)C(c2ccccc2Cl)N=C(Nc2nc3ccccc3o2)N1 (centres unmarked) [Compound 144, 2-(benzo[d]oxazol-2-ylamino)-4-(2-chlorophenyl)-N-(3-(hydroxymethyl)phenyl)-6-methyl-1,4-dihydropyrimidine-5-carboxamide]			1124.1 1 × 10^−6 cm/sec	<1			5.41	5.01	5.01					>30		
CC1=C(C(=O)Nc2cc(N(C)C)ccn2)C(c2ccc(C)cc2Cl)N=C(Nc2nc3cccc(N)c3o2)N1 (centres unmarked) [Compound 89, 2-((7-aminobenzo[d]oxazol-2-yl)amino)-4-(2-chloro-4-methylphenyl)-N-(4-(dimethylamino)pyridin-2-yl)-6-methyl-1,4-dihydropyrimidine-5-carboxamide]						5.46	5.48	4.81	4.81	179.3 1 × 10^−6 cm/sec	4.6	11.7017				
CC1=C(C(=O)Nc2cc(C(=O)O)ccn2)[C@@H](c2ccccc2Cl)N=C(Nc2nc3ccc(F)cc3o2)N1 [Compound 20, (S)-2-(4-(2-chlorophenyl)-2-((6-fluorobenzo[d]oxazol-2-yl)amino)-6-methyl-1,4-dihydropyrimidine-5-carboxamido)isonicotinic acid]						5.51	5.51	4.86	4.86	<1 1 × 10^−6 cm/sec	17.3	>30				
CC1=C(C(=O)Nc2cc(C(=O)O)ccn2)C(c2ccc(N3CCCC3)cc2Cl)N=C(Nc2nc3ccc(F)cc3o2)N1 (centres unmarked) [Compound 57, 2-(4-(2-chloro-4-(pyrrolidin-1-yl)phenyl)-2-((6-fluorobenzo[d]oxazol-2-yl)amino)-6-methyl-1,4-dihydropyrimidine-5-carboxamido)isonicotinic acid]						5.96	5.39	4.96	4.96	<1 1 × 10^−6 cm/sec	>87	>30				
